Reference: patent publication US7262173B2, “Chemosensitizing with liposomes containing oligonucleotides” (Georgetown University, priority 1997, dated 2007)

Experiments:
Raf-1 [1] = test: Raf-1 expression in SQ-20B tumor xenografts after i.v. or intratumoral ODN; type: in vivo, human; conditions: intravenous treatment; compared with untreated controls
Protocol: FIG. 7: Effects of intravenous administration of LE-ATG-AS raf ODN (SEQ ID NO:1) our Raf-1 expression in normal and tumor tissues. Raf-1 expression was examined in liver, kidneys and SQ-20B tumor xenograft of Balb/c nu/nu mice after i.v. injections of 6 mg/kg daily dose of LE-ATG-AS raf ODN (SEQ ID NO:1) (AS) or LE-ATG-S raf ODN (SEQ ID NO:3) (S) for five consecutive days. Control mice (C) received normal saline. Representative data showing Raf-1 expression in lysates normalized for protein content by immunoprecipitation and immunoblotting (top). Quantification data are shown as mean±s.d. from three mice (bottom).
FIG. 8: Inhibition of Raf-1 protein expression in SQ-20B tumor xenografts by intratumoral administration of LE-ATG-AS raf ODN (SEQ ID NO:1): Each animal received intratumoral injections of LE-ATG-AS raf ODN (SEQ ID NO:1) (AS) on the right flank and LE-ATG-S raf ODN (SEQ ID NO:3) (S) on the left flank at a dose of 4 mg/kg daily for seven days as explained in the experimental procedures. […] Quantification data shown are mean±s.d., from three representative mice. […]
For in vivo expression studies, tumor tissue and organs were homogenized in the cell lysis buffer using Polytron homogenizer (Westbury, N.Y., USA). Raf-1 expression was analyzed in tissue homogenates by immunoprecipitation and immunoblotting as described above.

[2] = mouse, in vivo, iv, 30 mg/kg
Protocol: FIG. 11: The plasma concentration-time profile of LE-5132 (SEQ ID NO:4) and 5132 (SEQ ID NO:4); 30 mg/kg LE-5132 (SEQ ID NO:4) or 5132 (SEQ ID NO:4) was administered i.v. in Balb/c nu/nu mice. Blood samples were collected from the retroorbital sinus at indicated times after injection, and ODN in plasma samples was extracted and analyzed by denaturing gel electrophoresis as described. […] Quantification data were calculated based on comparison with known concentrations of the standard samples and then normalized against sample dilution factors used for loading.
Male Balb/c nu/nu mice (National Cancer Institute, Frederick, Md.) were maintained in the Division of Comparative Medicine, Georgetown University, according to accredited procedures, and fed purina chow and water ad libitum. Mice were injected i.v. via the tail vein with 30 mg/kg of LE-5132 (SEQ ID NO:4) or 5132 (SEQ ID NO:4) formulated in PBS. At 5, 15, and 30 minutes and 1, 2, 4, 8, 24, and 48 hours after injection, animals were bled, under anesthesia, from the retroorbital sinus into heparinized tubes and killed by cervical dislocation. The blood was centrifuged immediately at 300 g for 10 minutes at 4° C. to separate the plasma. The liver, spleen, kidney, heart, and lungs were rapidly excised and rinsed in ice-cold normal saline. The plasma and organs were stored at −70° C. until further analysis.
Antisense raf ODN concentrations in plasma and tissue samples were detected as we described earlier (Gokhale et al., 1997). Briefly, the ODN was isolated from plasma samples using the phenol-chloroform extraction method and from tissues using a DNA extraction kit (Stratagene, La Jolla, Calif.). The raf ODN concentration standards were prepared by adding known amounts of 5132 (SEQ ID NO:4) in blank plasma or blank tissue samples, followed by extraction as described earlier. The extracts were loaded onto 20% pblyacrylamide/8 M urea gels and electrophoresed in TBE buffer. The gels were electroblotted onto nylon membranes in 0.5×TBE buffer at 20 V for one hour, and the blots were probed with [^32P]-labeled sense raf ODN probe in Quickhyb buffer (Stratagene) at 30° C. overnight. A 10–50-fold excess of the probe was used to ensure saturation of all bands. The autoradiographs were scanned using a computer program (Image-Quant software), and the amounts of antisense raf ODN in the samples were calculated by comparison with standards.

Raf-1 [3] = test: Raf-1 immunoprecipitation and immunoblotting in SQ-20B cells (5132, LE-5132, LE-10353); type: cell-based, human
Protocol: FIG. 9: Antisense sequence-specific inhibition of Raf-1 expression in SQ-20B cells. (A) Logarithmically growing SQ-20B cells were treated with indicated ODN concentrations of LE-5132 (SEQ ID NO:4) (lanes 3, 5 and 10), 5132 (SEQ ID NO:4) (lanes 4 and 6), or LE-10353 (SEQ ID NO:5) (lane 9) as described in Materials and Methods. Control cells were either left untreated (lanes 1 and 7) or treated with 1 uM blank liposomes (BL) (lanes 2 and 8). Whole cell lysates were normalized for total protein content and immunoprecipitated with agarose-conjugated polyclonal anti-Raf-1 antibody. Immune complexes were resolved by 7.5% SDS-PAGE and immunoblotted with polyclonal anti-Raf-1 antibody. (B) Data from three independent experiments were quantified and expressed relative to the level of Raf-1 in untreated cells.
On day two, cells were rinsed with fresh 30% FBS, followed by a second course of the treatment schedule as on day one for an additional 24 hours. This procedure yielded a minimal exposure of cells of LE-5132 (SEQ ID NO:4) 12 hours). […] The lysates were clarified by centrifugation at 16,000 g for 20 minutes, and the protein concentrations were determined (Pierce, Rockford, Ill.). […] The Raf-1 protein level was quantified using the computer software program Image-Quant (Molecular Dynamics, Sunnyvale, Calif.).

SQ-20B tumor xenografts = test: SQ-20B tumor xenograft growth (LE-5132, 5132, ionizing radiation); type: in vivo, Balb/c nu/nu mice; conditions: 10 mg/kg i.v. daily 7 days then three doses on alternate days; day 35
Protocol: FIG. 13: Effect of LE-5132 (SEQ ID NO:4) on […] tumor growth. SQ-20B rumor cells (2×10^6) were injected a.c. into the left flank region of each male Balb/c nu/nu mouse, 10–12 weeks old. Tumor xenografts were grown to a mean tumor volume of 94±6.4 mm^3, and the animals were randomized into two treatment groups. Day 0 represents the first day of treatment. […] The data shown are mean±SE of 5–7 animals per group.
FIG. 15: Effect of LE-5132 (SEQ ID NO:4) and ionizing radiation on SQ-20B rumor growth. (A) SQ-20B tumor xenografts were grown in male Balb/c nu/nu mice as described. Animals bearing a mean tumor volume of 72.0±4.3 mm^3 were randomized into five treatment groups. Day 0 represents the first day of treatment. […]
Logarithmically growing SQ-20B cells were injected s.c. (2×10^o cells) in the left flank region in male Balb/c nu/nu mice under mild anesthesia. […] Volumes for tumors were determined from caliper measurements of the three major axes (a, b, c) and calculated using abc/2, an approximation for the volume of an ellipse (πabc/6).
For each experiment, tumor-bearing mice were randomly divided into different treatment group, with 5–7 animals per group. […] Using TLD dosimetry, the average dose rate to the center of the tumor and to the mouse body were determined beforehand using the experimental irradiation conditions and a custom-made, tissue-equivalent, mouse phantom. […]

5′-GCAT-CAATGGAGCAC-3′ (sense GCATCAATGGAGCAC; listed as DNA, chemistry not fully specified) [ATG-S raf ODN]
effect on Raf-1 expression in tumor tissue (Raf-1 [1]): no effect

5′-TCC-CGC-CTG-TGA-CAT-GCA-TT-3′ [compound 5132]
AUCarea [2]: 6200 ng·h/mL
CL (total body clearance) [2]: 80.3 mL/min/kg
Cmax (peak plasma concentration) [2]: 13570 ng/mL
Vdarea (volume of distribution) [2]: 29.96 L/kg
initial distribution half-life [2]: 0.36 h
t1/2β (elimination half-life) [2]: 4.30 h
terminal half-life (t1/2β) [2]: 4.3 h
effect on Raf-1 expression in cell culture (Raf-1 [3]): ineffective
mean tumor volume compared with day 0 (100%) (SQ-20B tumor xenografts): 159.6%±10.0%
